Our source for the IC50 values is patent publication US20260055121A1, “TYK2 INHIBITORS AND USES THEREOF” (Sudo Biosciences Limited, priority 2022, published 2026).

pIC50: −log10 of the molar value.

For assay [1], the target named is T1, TYK2 Pseudokinase (JH2) (Homo sapiens, UniProt P29597).
T1 construct: HEK-Blue™ IL-23 and IFNα/0 cells with a stably-integrated cytokine receptor and STAT3 or STAT1; endogenous in cells; host or cells: HEK-Blue IL-23 and HEK-Blue IFNα/β reporter cells
The assay can be described thus: HEK-Blue IL-23 reporter assay (STAT3-inducible SEAP) for profiling TYK2 pseudokinase (JH2) inhibition. It is filed as cell-based. To be noted: HEK-Blue IL-23 cells, 10 ng/mL human recombinant IL-23, SEAP readout; read-out: IL23. The protocol:
(§1) HEK-Blue™ IL-23 and IFNα/0 cells with a stably-integrated cytokine receptor and STAT3 or STAT1 express STAT-inducible secreted embryonic alkaline phosphatase (SEAP) reporter gene upon cytokine stimulation. These cells are plated in DMEM (Gibco) containing 10% heat-inactivated FBS (Gibco) and 100 U/mL PenStrep (Gibco) at 37° C. under 5% CO2 conditions for 20-22 hours. The cells are then pretreated with serially diluted test compounds for 60 min prior to stimulation with either 10 ng/mL human recombinant IL-23 (Miltenyl Biotech) or 1 ng/mL human recombinant IFNα (InvivoGen) for 22-24 hours for IL-23 or 16-18 h for IFNα. SEAP induction is measured using the QUANTI Blue™ Solution (InvivoGen) according to the manufacturer's instructions.
(A reporter such as luciferase makes a cellular process visible.)

Assay [2] deals with T1, TYK2 Pseudokinase (JH2). The assay can be described thus: HEK-Blue IFNα/β reporter assay (STAT1-inducible SEAP) for profiling TYK2 pseudokinase (JH2) inhibition. To be noted: HEK-Blue IFNα/β cells, 1 ng/mL human recombinant IFNα, SEAP readout. It is filed as cell-based. The procedure: as §1
Assay [3] has as its target T2, JAK1-JH1 (Homo sapiens, UniProt P23458).
T2 construct: recombinant purified His or GST-tagged catalytic domain for each enzyme; made in house
The assay is described as follows: HTRF-based selectivity assay, JAK1 catalytic domain. The format is biochemical. To be noted: kinase domain (JH1), 21.43 μM ATP. The protocol: The ability of compounds to inhibit the activity of JAK1, JAK2, JAK3 and TYK2 is measured using a recombinant purified His or GST-tagged catalytic domain for each enzyme (JAK1, JAK2 and TYK2 are generated in-house; JAK3 was purchased from Carna biosciences, Cat #08-046) in an HTRF format biochemical assay. The reactions employs a commercial peptide substrate from Cisbio (Cat #62TK0PEC). The basic assay protocol is as follows: first, 2.5 μL of diluted compounds (4×) in DMSO are dispensed into a 384-well Optiplate. Next, 2.5 μL of enzyme (final concentrations for enzymes are: TYK2- 700 ng/mL, JAK1- 80.6 ng/mL, JAK2- 2.1 ng/mL and JAK3- 171.8 ng/mL) is added and incubated at RT for 5-20 min. Finally, 5 μl of mixture of 2×ATP [Final concentration 20 μM for TYK2, 21.43 μM for JAK1, 14.7 μM for JAK2 and 2.12 μM for JAK3]^+2× Substrate [Final concentration 217 nM for TYK2, 454.7 nM for JAK1, 200 nM for JAK2 and 257.4 nM for JAK3] is added to 384 well Optiplate. Composition of Kinase assay buffer used in the assay is as follows: HEPES 50 mM, EGTA 1 mM, MgCl2 10 mM, DTT 2 mM, Tween-20 0.01% and water. Then the plates are shaken and then incubated at 26.5° C. for 60 min.
(In general: In TR-FRET formats the signal depends on donor and acceptor labels being close together.)

In assay [4] the test system is IFN-γ. The assay can be described thus: HEK-Blue IFNγ reporter assay (STAT1-inducible SEAP) for determining selectivity. It is filed as cell-based. To be noted: HEK-Blue IFNγ reporter cells, 50 ng/mL human recombinant IFNγ, SEAP readout. The procedure: (§2) HEK-Blue™ IL-2 and IFNγ reporter cells with a stably-integrated cytokine receptor and STAT5 or STAT1 express STAT-inducible secreted embryonic alkaline phosphatase (SEAP) reporter gene upon cytokine stimulation. These cells were plated in DMEM (Gibco) containing 10% heat-inactivated FBS (Gibco) and 100 U/mL PenStrep (Gibco) at 37° C. under 5% CO2 conditions for 20-22 hours. The cells were then pretreated with serially diluted test compounds for 60 min prior to stimulation with either 4 ng/mL human recombinant TL-2 (Miltenyl Biotech) or 50 ng/mL human recombinant IFNγ (InvivoGen) for 24 hours. SEAP induction was measured using the QUANTI-Blue™ Solution (InvivoGen) according to the manufacturer's instructions.

For assay [5], the system named is IL-2. The assay is described as follows: HEK-Blue IL-2 reporter assay (STAT5-inducible SEAP) for determining selectivity. The format is cell-based. The following applies: HEK-Blue IL-2 reporter cells, 4 ng/mL human recombinant IL-2, SEAP readout. The protocol: as §2

T1 sequence (P29597 whole entry): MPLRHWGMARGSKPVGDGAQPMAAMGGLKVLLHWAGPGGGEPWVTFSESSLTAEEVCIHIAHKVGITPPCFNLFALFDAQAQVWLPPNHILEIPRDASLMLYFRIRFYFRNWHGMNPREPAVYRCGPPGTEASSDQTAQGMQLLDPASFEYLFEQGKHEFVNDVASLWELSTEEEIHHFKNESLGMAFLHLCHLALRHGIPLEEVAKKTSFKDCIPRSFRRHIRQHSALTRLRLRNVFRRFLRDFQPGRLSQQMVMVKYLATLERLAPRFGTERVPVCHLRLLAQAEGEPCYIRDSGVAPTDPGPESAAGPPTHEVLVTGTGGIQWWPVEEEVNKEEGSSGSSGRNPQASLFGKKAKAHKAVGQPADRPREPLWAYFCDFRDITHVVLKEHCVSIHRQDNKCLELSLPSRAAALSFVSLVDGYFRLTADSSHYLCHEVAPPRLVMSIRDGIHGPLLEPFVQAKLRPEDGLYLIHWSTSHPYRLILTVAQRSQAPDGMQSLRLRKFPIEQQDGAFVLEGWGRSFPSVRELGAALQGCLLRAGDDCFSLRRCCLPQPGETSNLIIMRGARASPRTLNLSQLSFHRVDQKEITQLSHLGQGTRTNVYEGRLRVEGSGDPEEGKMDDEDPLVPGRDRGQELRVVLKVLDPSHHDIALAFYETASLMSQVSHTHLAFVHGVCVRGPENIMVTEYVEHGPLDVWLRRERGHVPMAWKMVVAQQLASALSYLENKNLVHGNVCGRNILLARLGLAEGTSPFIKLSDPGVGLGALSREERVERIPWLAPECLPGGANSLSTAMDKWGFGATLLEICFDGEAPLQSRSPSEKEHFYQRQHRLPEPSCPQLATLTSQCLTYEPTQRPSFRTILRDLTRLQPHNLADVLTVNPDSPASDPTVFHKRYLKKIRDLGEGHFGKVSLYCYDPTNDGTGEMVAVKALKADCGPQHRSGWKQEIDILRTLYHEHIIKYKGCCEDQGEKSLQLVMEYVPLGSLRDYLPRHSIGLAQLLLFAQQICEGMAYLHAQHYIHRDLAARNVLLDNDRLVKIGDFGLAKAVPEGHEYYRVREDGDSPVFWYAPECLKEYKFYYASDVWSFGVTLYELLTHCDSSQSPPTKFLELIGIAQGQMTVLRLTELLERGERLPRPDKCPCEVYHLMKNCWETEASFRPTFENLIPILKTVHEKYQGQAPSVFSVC
T2 sequence (P23458 875-1153 limits assumed): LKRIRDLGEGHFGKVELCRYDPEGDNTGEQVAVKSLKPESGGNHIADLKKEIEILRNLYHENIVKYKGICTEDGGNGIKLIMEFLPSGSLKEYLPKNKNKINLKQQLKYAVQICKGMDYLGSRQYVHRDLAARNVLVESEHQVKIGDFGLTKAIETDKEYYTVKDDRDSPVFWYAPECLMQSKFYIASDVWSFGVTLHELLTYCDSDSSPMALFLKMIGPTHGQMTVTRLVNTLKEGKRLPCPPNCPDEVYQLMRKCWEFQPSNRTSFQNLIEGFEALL

Consider `CCONC(=O)c1nnc(NC(=O)C2CC2)cc1Nc1nccc2c1N(C)[C@@H](C)c1nn(C)nc1-2` (single isomer, unassigned) [Compound 16], for which the pIC50 in assay [1] and in assay [2] was more than 7.52 in each case.
With `Cn1cc2c(n1)-c1cccc(Nc3cc(NC(=O)C4CC4)nc4[nH]n(C)c(=O)c34)c1OC2` [Compound 1, N-(2-methyl-4-((2-methyl-2,4-dihydrochromeno[4,3-c]pyrazol-6-yl)amino)-3-oxo-2,3-dihydro-1H-pyrazolo[3,4-b]pyridin-6-yl)cyclopropanecarboxamide], the results for the pIC50 in assay [1] and in assay [3] were 6.00 to 6.52 and less than 6.00, respectively.
`CN1Cc2cn(C)nc2-c2cccc(Nc3cc(NC(=O)C4CC4)nc4[nH]n(C)c(=O)c34)c21` [Compound 2, N-(4-((2,5-dimethyl-4,5-dihydro-2H-pyrazolo[4,3-c]quinolin-6-yl)amino)-2-methyl-3-oxo-2,3-dihydro-1H-pyrazolo[3,4-b]pyridin-6-yl)cyclopropanecarboxamide]: the pIC50 in assay [1] is more than 7.52; in assay [2] it was more than 7.52; in assay [3], less than 6.00.
For the compound `Cc1nc2n(n1)-c1cccc(Nc3cc(NC(=O)C4CC4)nc4[nH]n(C)c(=O)c34)c1N(C)[C@H]2C` [Compound 3, (S)—N-(2-methyl-3-oxo-4-((2,4,5-trimethyl-4,5-dihydro-[1,2,4]triazolo[1,5-a]quinoxalin-6-yl)amino)-2,3-dihydro-1H-pyrazolo[3,4-b]pyridin-6-yl)cyclopropanecarboxamide], the pIC50 was more than 7.52 in assay [1], less than 6.00 in assay [4], less than 6.00 in assay [5] and 6.52 to 7.52 in assay [2].
Turning to `[2H]C([2H])([2H])NC(=O)c1c(Nc2cccc3c2N(C)[C@@H](C)c2nc(C)nn2-3)cc(NC(=O)C2CC2)nc1N` [Compound 4, (S)-2-amino-6-(cyclopropanecarboxamido)-N-(methyl-d3)-4-((2,4,5-trimethyl-4,5-dihydro-[1,2,4]triazolo[1,5-a]quinoxalin-6-yl)amino)nicotinamide], the pIC50 in assay [1] and in assay [2] was less than 6.00 in each case.
Take `CNC(=O)c1cnc2[nH]ccc2c1Nc1cccc2c1N(C)CCn1cnnc1-2` [Compound 6, N-methyl-4-((7-methyl-6,7-dihydro-5H-benzo[f][1,2,4]triazolo[4,3-d][1,4]diazepin-8-yl)amino)-1H-pyrrolo[2,3-b]pyridine-5-carboxamide]: the pIC50 in assay [1] and in assay [2] was less than 6.00 throughout.
In the case of `CNC(=O)c1cnc2[nH]ccc2c1Nc1cccc2c1N(C)Cc1cn(C)nc1-2` [Compound 7, 4-((2,5-dimethyl-4,5-dihydro-2H-pyrazolo[4,3-c]quinolin-6-yl)amino)-N-methyl-1H-pyrrolo[2,3-b]pyridine-5-carboxamide], the pIC50 in assay [1] and in assay [2] was less than 6.00 in each case.
Take `CONC(=O)c1cnc(NC(=O)C2CC2)cc1Nc1cccc2c1N(C)[C@@H](C)c1nc(C)nn1-2` [Compound 8, (S)-6-(cyclopropanecarboxamido)-N-methoxy-4-((2,4,5-trimethyl-4,5-dihydro-[1,2,4]triazolo[1,5-a]quinoxalin-6-yl)amino)nicotinamide]: the pIC50 was more than 7.52 in assay [1] and 6.52 to 7.52 in assay [2].
With `CCONC(=O)c1cnc(NC(=O)C2CC2)cc1Nc1cccc2c1N(C)[C@@H](C)c1nc(C)nn1-2` [Compound 9, (S)-6-(cyclopropanecarboxamido)-N-ethoxy-4-((2,4,5-trimethyl-4,5-dihydro-[1,2,4]triazolo[1,5-a]quinoxalin-6-yl)amino)nicotinamide], the pIC50 in assay [1] and in assay [2] was more than 7.52 in each case.
For `CONC(=O)c1nnc(NC(=O)C2CC2)cc1Nc1cccc2c1N(C)[C@@H](C)c1nc(C)nn1-2` [Compound 10, (S)-6-(cyclopropanecarboxamido)-N-methoxy-4-((2,4,5-trimethyl-4,5-dihydro-[1,2,4]triazolo[1,5-a]quinoxalin-6-yl)amino)pyridazine-3-carboxamide], the pIC50 in assay [1] was more than 7.52; in assay [2], 6.52 to 7.52.
For `CONC(=O)c1nnc(Nc2ccc(F)cn2)cc1Nc1cccc2c1N(C)[C@@H](C)c1nc(C)nn1-2` [Compound 11, (S)-6-((5-fluoropyridin-2-yl)amino)-N-methoxy-4-((2,4,5-trimethyl-4,5-dihydro-[1,2,4]triazolo[1,5-a]quinoxalin-6-yl)amino)pyridazine-3-carboxamide], in that order: more than 7.52 and more than 7.52.
As to `CONC(=O)c1nnc(Nc2cc(C)nc(C)n2)cc1Nc1cccc2c1N(C)[C@@H](C)c1nc(C)nn1-2` [Compound 12, (S)-6-((2,6-dimethylpyrimidin-4-yl)amino)-N-methoxy-4-((2,4,5-trimethyl-4,5-dihydro-[1,2,4]triazolo[1,5-a]quinoxalin-6-yl)amino)pyridazine-3-carboxamide], the pIC50 in assay [1] and in assay [2] was more than 7.52 in each case.
Regarding `CCONC(=O)c1nnc(NC(=O)C2CC2)cc1Nc1cccc2c1N(C)[C@@H](C)c1nc(C)nn1-2` [Compound 13, (S)-6-(cyclopropanecarboxamido)-N-ethoxy-4-((2,4,5-trimethyl-4,5-dihydro-[1,2,4]triazolo[1,5-a]quinoxalin-6-yl)amino)pyridazine-3-carboxamide], the pIC50 in assay [1] is more than 7.52; in assay [2] it was 6.52 to 7.52.
Consider `CCONC(=O)c1nnc(Nc2cc(C)nc(C)n2)cc1Nc1cccc2c1N(C)[C@@H](C)c1nc(C)nn1-2` [Compound 14, (S)-6-((2,6-dimethylpyrimidin-4-yl)amino)-N-ethoxy-4-((2,4,5-trimethyl-4,5-dihydro-[1,2,4]triazolo[1,5-a]quinoxalin-6-yl)amino)pyridazine-3-carboxamide], for which the pIC50 in assay [1] and in assay [2] was more than 7.52 throughout.
For `CCONC(=O)c1nnc(Nc2ccc(F)cn2)cc1Nc1cccc2c1N(C)[C@@H](C)c1nc(C)nn1-2` [Compound 15, (S)—N-ethoxy-6-((5-fluoropyridin-2-yl)amino)-4-((2,4,5-trimethyl-4,5-dihydro-[1,2,4]triazolo[1,5-a]quinoxalin-6-yl)amino)pyridazine-3-carboxamide], the pIC50 in assay [1] and in assay [2] was more than 7.52 in each case.
